Measurements taken from patent publication US8952024B2, “Herbicidal pyrimidone derivatives” (E I du Pont de Nemours and Company, priority 2009, dated 2015).

Tests used:
Assay in all cases: Test B pre-/postemergence plant response
Assay type in all cases: in vivo
[1] = tested on: Italian ryegrass (Lolium multiflorum)
Summary of the method: (§1)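 Steps: sow seed in loam–sand soil and spray preemergence, or grow plants in peat-based medium to 1–4 leaves (2–18 cm) and spray postemergence; formulation is non-phytotoxic solvent plus surfactant; hold in greenhouse 13–15 days; score visually vs controls, 0 = no effect, 100 = complete control.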

[2] = tested on: large crabgrass (Digitaria sanguinalis)
Summary of the method: as §1

[3] = tested on: downy bromegrass (Bromus tectorum)
Summary of the method: as §1

[4] = tested on: wheat (Triticum aestivum)
Summary of the method: as §1

[5] = tested on: morningglory (Ipomoea coccinea)
Summary of the method: as §1

[6] = tested on: bermudagrass (Cynodon dactylon)
Summary of the method: as §1

[7] = tested on: Surinam grass (Brachiaria decumbens)
Summary of the method: as §1

[8] = tested on: cocklebur (Xanthium strumarium)
Summary of the method: as §1

[9] = tested on: blackgrass (Alopecurus myosuroides)
Summary of the method: as §1

kochia (Kochia scoparia) = conditions: Postemergence
Summary of the method: as §1

wild oat (Avena fatua) = tested on: wild oat (Avena fatua)
Summary of the method: as §1

[10] = tested on: woolly cupgrass (Eriochloa villosa)
Summary of the method: as §1

[11] = tested on: ragweed (common ragweed, Ambrosia elatior)
Summary of the method: as §1

[12] = Postemergence, 31 g ai/ha, 0 to 100 scale (0 no effect, 100 complete control)
[13] = Postemergence, 62 g ai/ha, scale 0 to 100 (0 no effect, 100 complete control)
[14] = Postemergence, 250 g ai/ha, scale 0 to 100 (0 no effect, 100 complete control), 13 to 15 days
[15] = Postemergence, 125 g ai/ha, scale 0 to 100 (0 no effect, 100 complete control)
[16] = 250 g ai/ha, Preemergence, 0 to 100 scale
[17] = Postemergence, 62 g ai/ha, scale 0 (no effect) to 100 (complete control), 13 to 15 days
[18] = Postemergence, 125 g ai/ha, visual rating after 13 to 15 days, scale 0 (no effect) to 100 (complete control)
[19] = Preemergence, 31 g ai/ha, scale 0 to 100 (0 no effect, 100 complete control)
[20] = Preemergence, 125 g ai/ha, 0 to 100 scale
[21] = Postemergence, 31 g ai/ha, scale 0 to 100 (0 no effect, 100 complete control)
[22] = Postemergence, 250 g ai/ha, scale 0 to 100
[23] = Preemergence, 62 g ai/ha, scale 0 to 100 (0 no effect, 100 complete control)

`O=C(C1=C(O)C2CCC(C2)C1=O)c1cnc(-c2ccsc2)n(CC2CCCO2)c1=O` (centres unmarked) [Compound 229] was tested, and the “Plant response rating, Ryegrass, Italian” value [1, 12] was 0, the “Plant response rating, Ryegrass, Italian” value [1, 13] was 0 and the “Plant response rating, Ryegrass, Italian” value [1, 14] was 10. The “Plant response rating, Crabgrass, Large” value [2, 12] was 80, the “Plant response rating, Crabgrass, Large” value [2, 13] was 90 and the “Plant response rating, Crabgrass, Large” value [2, 15] was 90. The “Plant response rating, Crabgrass, Large” value [2, 14] was 90, the “Plant response rating, Bromegrass, Downy” value [3, 12] was 5 and the “Plant response rating, Bromegrass, Downy” value [3, 13] was 15. The “Plant response rating, Bromegrass, Downy” value [3, 15] was 20, the “Plant response rating, Bromegrass, Downy” value [3, 14] was 30 and the “Plant response rating, Wheat” value [4, 12] was 0. For the same compound, the “Plant response rating, Wheat” value [4, 13] was 0, the “Plant response rating, Wheat” value [4, 14] was 35 and the “Plant response rating, Morningglory” value [5, 12] was 98. The “Plant response rating, Morningglory” value [5, 13] was 100, the “Plant response rating, Morningglory” value [5, 15] was 100 and the “Plant response rating, Morningglory” value [5, 14] was 100. For the same compound, the “Plant response rating, Bermudagrass” value [6, 12] was 75, the “Plant response rating, Bermudagrass” value [6, 13] was 80 and the “Plant response rating, Bermudagrass” value [6, 15] was 85. For the same compound, the “Plant response rating, Bermudagrass” value [6, 14] was 90, the “Plant response rating, Surinam Grass” value [7, 12] was 65 and the “Plant response rating, Surinam Grass” value [7, 13] was 70. The “Plant response rating, Surinam Grass” value [7, 14] was 90, the “Plant response rating, Cocklebur” value [8, 12] was 85 and the “Plant response rating, Cocklebur” value [8, 13] was 90. The “Plant response rating, Cocklebur” value [8, 15] was 100, the “Plant response rating, Cocklebur” value [8, 14] was 100 and the “Plant response rating, Blackgrass” value [9, 12] was 0. The “Plant response rating, Blackgrass” value [9, 13] was 0, the “Plant response rating, Blackgrass” value [9, 15] was 5 and the “Plant response rating, Blackgrass” value [9, 14] was 30. For the same compound, the “Plant response rating, Kochia” value (kochia (Kochia scoparia); 31 g ai/ha, 0 to 100 scale (0 no effect, 100 complete control)) was 55, the “Plant response rating, Kochia” value (kochia (Kochia scoparia); 62 g ai/ha, scale 0 to 100 (0 no effect, 100 complete control)) was 70 and the “Plant response rating, Kochia” value (kochia (Kochia scoparia); 125 g ai/ha, scale 0 to 100 (0 no effect, 100 complete control)) was 80. The “Plant response rating, Kochia” value (kochia (Kochia scoparia); 250 g ai/ha, scale 0 to 100 (0 no effect, 100 complete control), 13 to 15 days) was 100, the “Plant response rating, Oat, Wild” value (wild oat (Avena fatua); [12]) was 0 and the “Plant response rating, Oat, Wild” value (wild oat (Avena fatua); [13]) was 5. The “Plant response rating, Oat, Wild” value (wild oat (Avena fatua); [14]) was 35, the “Plant response rating, Cupgrass, Woolly” value [10, 12] was 70 and the “Plant response rating, Cupgrass, Woolly” value [10, 13] was 75. For the same compound, the “Plant response rating, Cupgrass, Woolly” value [10, 15] was 80, the “Plant response rating, Cupgrass, Woolly” value [10, 14] was 90 and the “Plant response rating, Ragweed” value [11, 12] was 80. For the same compound, the “Plant response rating, Ragweed” value [11, 13] was 80 and the “Plant response rating, Ragweed” value [11, 14] was 95.

In the case of `Cc1ccccc1-n1c(-c2cccc(Cl)c2)ncc(C(=O)C2=C(O)CCCC2=O)c1=O` [Compound 36], the “Plant response rating, Ryegrass, Italian” value [1, 16] was 0, the “Plant response rating, Ryegrass, Italian” value [1, 17] was 5 and the “Plant response rating, Ryegrass, Italian” value [1, 18] was 10. For the same compound, the “Plant response rating, Ryegrass, Italian” value [1, 19] was 0, the “Ryegrass, Italian plant response rating” value [1, 20] was 0 and the “Plant response rating, Crabgrass, Large” value [2, 16] was 100. For the same compound, the “Plant response rating, Crabgrass, Large” value [2, 21] was 90, the “Plant response rating, Crabgrass, Large” value [2, 17] was 95 and the “Plant response rating, Crabgrass, Large” value [2, 18] was 95. For the same compound, the “Crabgrass, Large plant response rating” value [2, 22] was 98, the “Plant response rating, Crabgrass, Large” value [2, 19] was 20 and the “Plant response rating, Crabgrass, Large” value [2, 23] was 90. The “Crabgrass, Large plant response rating” value [2, 20] was 100, the “Plant response rating, Bromegrass, Downy” value [3, 16] was 10 and the “Plant response rating, Bromegrass, Downy” value [3, 21] was 30. The “Plant response rating, Bromegrass, Downy” value [3, 17] was 30, the “Plant response rating, Bromegrass, Downy” value [3, 18] was 45 and the “Bromegrass, Downy plant response rating” value [3, 22] was 65. For the same compound, the “Plant response rating, Bromegrass, Downy” value [3, 19] was 0, the “Plant response rating, Bromegrass, Downy” value [3, 23] was 0 and the “Bromegrass, Downy plant response rating” value [3, 20] was 0. The “Plant response rating, Wheat” value [4, 16] was 0, the “Plant response rating, Wheat” value [4, 17] was 5 and the “Plant response rating, Wheat” value [4, 18] was 5. For the same compound, the “Plant response rating, Wheat” value [4, 19] was 0, the “Wheat plant response rating” value [4, 20] was 0 and the “Plant response rating, Morningglory” value [5, 16] was 20. The “Plant response rating, Morningglory” value [5, 17] was 70, the “Plant response rating, Morningglory” value [5, 18] was 75 and the “Plant response rating, Morningglory” value [5, 19] was 0. For the same compound, the “Plant response rating, Morningglory” value [5, 23] was 0, the “Morningglory plant response rating” value [5, 20] was 0 and the “Plant response rating, Bermudagrass” value [6, 16] was 100. The “Plant response rating, Bermudagrass” value [6, 21] was 90, the “Plant response rating, Bermudagrass” value [6, 17] was 98 and the “Plant response rating, Bermudagrass” value [6, 18] was 100. The “Bermudagrass plant response rating” value [6, 22] was 100, the “Plant response rating, Bermudagrass” value [6, 19] was 95 and the “Plant response rating, Bermudagrass” value [6, 23] was 100. For the same compound, the “Bermudagrass plant response rating” value [6, 20] was 100, the “Plant response rating, Surinam Grass” value [7, 16] was 100 and the “Plant response rating, Surinam Grass” value [7, 17] was 85. For the same compound, the “Plant response rating, Surinam Grass” value [7, 18] was 85, the “Plant response rating, Surinam Grass” value [7, 19] was 70 and the “Surinam Grass plant response rating” value [7, 20] was 100. For the same compound, the “Plant response rating, Cocklebur” value [8, 16] was 80, the “Plant response rating, Blackgrass” value [9, 16] was 25 and the “Plant response rating, Blackgrass” value [9, 21] was 5. For the same compound, the “Plant response rating, Blackgrass” value [9, 17] was 5, the “Plant response rating, Blackgrass” value [9, 18] was 15 and the “Blackgrass plant response rating” value [9, 22] was 15. The “Plant response rating, Blackgrass” value [9, 19] was 20, the “Plant response rating, Blackgrass” value [9, 23] was 25 and the “Blackgrass plant response rating” value [9, 20] was 25. For the same compound, the “Plant response rating, Kochia” value (kochia (Kochia scoparia); 62 g ai/ha, scale 0 (no effect) to 100 (complete control), 13 to 15 days) was 0, the “Plant response rating, Kochia” value (kochia (Kochia scoparia); 125 g ai/ha, visual rating after 13 to 15 days, scale 0 (no effect) to 100 (complete control)) was 60 and the “Kochia plant response rating” value (kochia (Kochia scoparia); 250 g ai/ha, scale 0 to 100) was 65. For the same compound, the “Plant response rating, Oat, Wild” value (wild oat (Avena fatua); [16]) was 0, the “Plant response rating, Oat, Wild” value (wild oat (Avena fatua); [17]) was 75 and the “Plant response rating, Oat, Wild” value (wild oat (Avena fatua); [18]) was 75. For the same compound, the “Plant response rating, Oat, Wild” value (wild oat (Avena fatua); [19]) was 0, the “Oat, Wild plant response rating” value (wild oat (Avena fatua); [20]) was 0 and the “Plant response rating, Cupgrass, Woolly” value [10, 16] was 65. The “Plant response rating, Cupgrass, Woolly” value [10, 21] was 85, the “Plant response rating, Cupgrass, Woolly” value [10, 17] was 90 and the “Plant response rating, Cupgrass, Woolly” value [10, 18] was 95. The “Cupgrass, Woolly plant response rating” value [10, 22] was 98, the “Plant response rating, Cupgrass, Woolly” value [10, 19] was 0 and the “Plant response rating, Cupgrass, Woolly” value [10, 23] was 0. The “Cupgrass, Woolly plant response rating” value [10, 20] was 10, the “Plant response rating, Ragweed” value [11, 16] was 90 and the “Plant response rating, Ragweed” value [11, 17] was 90. For the same compound, the “Plant response rating, Ragweed” value [11, 18] was 95, the “Plant response rating, Ragweed” value [11, 19] was 35 and the “Ragweed plant response rating” value [11, 20] was 85.
